Laboratory results reported in PubChem BioAssay AID2060619 (Molecular Pharmacology Branch, DTP, NCI, 2025).

System: 323965-272-R-J2-PDC complex spheroid viability
Assay: Anticancer human tumor 323965-272-R-J2-PDC patient-derived pancreatic carcinoma cell line growth inhibition [CLK]
Conditions: for IC50: curve of first compound; for viability, T/C: stronger effect = lower value
In short: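 Multi-cell-type spheroids combined patient-derived tumor cells with HUVEC endothelial cells and human mesenchymal stem cells. Paired agents were dosed in half-log steps down from about clinical Cmax, or from 10 microM where Cmax was unknown.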

[1] = second compound 0.0316 µM, first compound 0.0316 µM
[2] = second compound 0.0316 µM, first compound 0.1 µM
[3] = second compound 0.0316 µM, first compound 0.316 µM
[4] = second compound 0.0316 µM, first compound 1 µM
[5] = second compound 0.0316 µM, first compound 3.16 µM
[6] = second compound 0.0316 µM, first compound 10 µM
[7] = second compound 0.1 µM, first compound 0.0316 µM
[8] = second compound 0.1 µM, first compound 0.1 µM
[9] = second compound 0.1 µM, first compound 0.316 µM
[10] = second compound 0.1 µM, first compound 1 µM
[11] = second compound 0.1 µM, first compound 3.16 µM
[12] = second compound 0.1 µM, first compound 10 µM
[13] = second compound 0.316 µM, first compound 0.0316 µM
[14] = second compound 0.316 µM, first compound 0.1 µM
[15] = second compound 0.316 µM, first compound 0.316 µM
[16] = second compound 0.316 µM, first compound 1 µM
[17] = second compound 0.316 µM, first compound 3.16 µM
[18] = second compound 0.316 µM, first compound 10 µM
[19] = second compound 1 µM, first compound 0.0316 µM
[20] = second compound 1 µM, first compound 0.1 µM
[21] = second compound 1 µM, first compound 0.316 µM
[22] = second compound 1 µM, first compound 1 µM
[23] = second compound 1 µM, first compound 3.16 µM
[24] = second compound 1 µM, first compound 10 µM
[25] = second compound 3.16 µM, first compound 0.0316 µM
[26] = second compound 3.16 µM, first compound 0.1 µM
[27] = second compound 3.16 µM, first compound 0.316 µM
[28] = second compound 3.16 µM, first compound 1 µM
[29] = second compound 3.16 µM, first compound 3.16 µM
[30] = second compound 3.16 µM, first compound 10 µM
[31] = second compound 10 µM, first compound 0.0316 µM
[32] = second compound 10 µM, first compound 0.1 µM
[33] = second compound 10 µM, first compound 0.316 µM
[34] = second compound 10 µM, first compound 1 µM
[35] = second compound 10 µM, first compound 3.16 µM
[36] = second compound 10 µM, first compound 10 µM
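Also: spheroids exposed to agents for seven days before readout.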
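For viability, T/C in this document: percent of DMSO vehicle control wells so 100% = untreated growth.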

CC1(C)CCC(CN2CCN(c3ccc(C(=O)NS(=O)(=O)c4ccc(NCC5CCOCC5)c([N+](=O)[O-])c4)c(Oc4cnc5[nH]ccc5c4)c3)CC2)=C(c2ccc(Cl)cc2)C1 + CN1CCN(c2cc(C(=O)Nc3cc4cc(-c5cnn(C)c5)ccc4cn3)ccn2)CC1
IC50 (second compound 0.0316 µM): 4960 nM
IC50 (second compound 0.1 µM): 3600 nM
IC50 (second compound 0.316 µM): < 31.6 nM
IC50 (second compound 1 µM): < 31.6 nM
IC50 (second compound 3.16 µM): < 31.6 nM
IC50 (second compound 10 µM): < 31.6 nM
viability, T/C [1]: 91.3%
viability, T/C [2]: 97.7%
viability, T/C [3]: 93.8%
viability, T/C [4]: 92.2%
viability, T/C [5]: 78.8%
viability, T/C [6]: 5.11%
viability, T/C [7]: 69.6%
viability, T/C [8]: 63.8%
viability, T/C [9]: 65.4%
viability, T/C [10]: 68.5%
viability, T/C [11]: 55.8%
viability, T/C [12]: 5.08%
viability, T/C [13]: 27.8%
viability, T/C [14]: 24.5%
viability, T/C [15]: 28.6%
viability, T/C [16]: 27.1%
viability, T/C [17]: 20.2%
viability, T/C [18]: 4.31%
viability, T/C [19]: 3.4%
viability, T/C [20]: 3.32%
viability, T/C [21]: 4.86%
viability, T/C [22]: 2.95%
viability, T/C [23]: 2.45%
viability, T/C [24]: 2.47%
viability, T/C [25]: 3.55%
viability, T/C [26]: 3.34%
viability, T/C [27]: 3.03%
viability, T/C [28]: 2.11%
viability, T/C [29]: 1.06%
viability, T/C [30]: 0.14%
viability, T/C [31]: 4.06%
viability, T/C [32]: 3.26%
viability, T/C [33]: 3.77%
viability, T/C [34]: 2.06%
viability, T/C [35]: 0.92%
viability, T/C [36]: 3.22%

CC1COCCN1c1cc(C2(S(C)(=N)=O)CC2)nc(-c2ccnc3[nH]ccc23)n1 (centres undefined) + CN1CCN(c2cc(C(=O)Nc3cc4cc(-c5cnn(C)c5)ccc4cn3)ccn2)CC1
IC50 (second compound 0.0316 µM): 1820 nM
IC50 (second compound 0.1 µM): 701 nM
IC50 (second compound 0.316 µM): < 31.6 nM
IC50 (second compound 1 µM): < 31.6 nM
IC50 (second compound 3.16 µM): < 31.6 nM
IC50 (second compound 10 µM): < 31.6 nM
viability, T/C [1]: 98.2%
viability, T/C [2]: 103%
viability, T/C [3]: 79.5%
viability, T/C [4]: 65.8%
viability, T/C [5]: 36.7%
viability, T/C [6]: 25.6%
viability, T/C [7]: 66.9%
viability, T/C [8]: 77.2%
viability, T/C [9]: 67%
viability, T/C [10]: 41.8%
viability, T/C [11]: 31%
viability, T/C [12]: 23.6%
viability, T/C [13]: 24.6%
viability, T/C [14]: 29.2%
viability, T/C [15]: 22.1%
viability, T/C [16]: 21.4%
viability, T/C [17]: 17.4%
viability, T/C [18]: 15.1%
viability, T/C [19]: 3.95%
viability, T/C [20]: 3.37%
viability, T/C [21]: 3.9%
viability, T/C [22]: 3.84%
viability, T/C [23]: 2.35%
viability, T/C [24]: 2.79%
viability, T/C [25]: 4.84%
viability, T/C [26]: 4.43%
viability, T/C [27]: 4.15%
viability, T/C [28]: 3.73%
viability, T/C [29]: 3.53%
viability, T/C [30]: 4.26%
viability, T/C [31]: 4.2%
viability, T/C [32]: 3.8%
viability, T/C [33]: 4.37%
viability, T/C [34]: 3.26%
viability, T/C [35]: 4.39%
viability, T/C [36]: 2.79%
